According to PubChem BioAssay (NCI):
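Briefly, cells in 96-well plates were exposed to five compound concentrations for 48 h, and endpoints were estimated by linear interpolation. GI50 = concentration required for 50% inhibition of growth. Definition used: TGI = concentration required for complete inhibition of growth.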

Legend:
Assay in all cases: inhibition of tumour cell growth, NCI panel, 48 h
[1] = system: SF-268 CNS
[2] = system: CCRF-CEM leukemia
[3] = system: A498 renal
[4] = system: OVCAR-3 ovarian
[5] = system: MDA-MB-231 breast
[6] = system: DU-145 prostate
[7] = system: HL-60(TB) leukemia
[8] = system: MCF7 breast
[9] = system: MOLT-4 leukemia
[10] = system: MALME-3M melanoma

`COc1ccc(C(=O)C(CN(C)C)CN(C)C)cc1` was tested, and the GI50 [1] was 13.7 µM, the TGI [1] was 42.3 µM and the GI50 [2] was 1.39 µM. It also gave a TGI [2] of 5.13 µM, a GI50 [3] of 18.6 µM and a TGI [3] of 32.7 µM. It also gave a GI50 [4] of 1.29 µM, a TGI [4] of 2.57 µM and a GI50 [5] of 14.6 µM. It also gave a TGI [5] of 36.6 µM, a GI50 [6] of 3.21 µM and a TGI [6] of 9.93 µM. The GI50 [7] was 0.116 µM, the TGI [7] was 1.87 µM and the GI50 [8] was 2.73 µM. For the same compound, the TGI [8] was 12.3 µM.
Compound `Oc1ccc(C=Nc2ccccc2O)cc1` has a TGI [9] greater than 100 µM, a TGI [1] greater than 100 µM and a TGI [2] greater than 100 µM. It also gave a TGI [3] greater than 100 µM, a TGI [4] greater than 100 µM and a TGI [5] greater than 100 µM. The TGI [6] was 31.6 µM, the TGI [7] was 42.1 µM and the TGI [8] was 90.8 µM.
`Cc1cc2nc(NCCN)n(Cc3ccc(F)c(Cl)c3)c2cc1C` gave a GI50 [9] of 6.42 µM, a TGI [9] of 22.1 µM and a GI50 [1] of 11.6 µM. For the same compound, the TGI [1] was 26 µM, the GI50 [2] was 12.7 µM and the TGI [2] was 29.3 µM. It also gave a GI50 [4] of 12.8 µM, a TGI [4] of 27 µM and a GI50 [5] of 2.68 µM. It also gave a TGI [5] of 9.44 µM, a GI50 [6] of 14.1 µM and a TGI [6] of 27.4 µM. The GI50 [7] was 2.83 µM, the TGI [7] was 11.7 µM and the GI50 [8] was 11.7 µM. It also gave a TGI [8] of 27.1 µM, a GI50 [10] of 1.83 µM and a TGI [10] of 4.19 µM.
With `O=C(CSc1nc2c(n1Nc1ccccc1)-c1ccccc1SC2)Nc1nc(-c2ccc(Cl)cc2)cs1` the GI50 [9] was greater than 100 µM, the TGI [9] was greater than 100 µM and the GI50 [1] was 10.8 µM. The TGI [1] was greater than 100 µM, the GI50 [3] was 6.44 µM and the TGI [3] was 32.8 µM. For the same compound, the GI50 [4] was 7.34 µM, the TGI [4] was greater than 100 µM and the GI50 [5] was 33.3 µM. It also gave a TGI [5] greater than 100 µM, a GI50 [6] greater than 100 µM and a TGI [6] greater than 100 µM. For the same compound, the GI50 [8] was greater than 100 µM and the TGI [8] was greater than 100 µM.
Work on `O=C(CN(/C=C/C(=O)C(F)(F)F)c1ccc(Cl)cc1)c1ccc(Cl)cc1` yielded a GI50 [9] of 8.82 µM, a TGI [9] of 37.4 µM and a GI50 [1] of 11.5 µM. The TGI [1] was 29.4 µM, the GI50 [2] was 5.11 µM and the TGI [2] was 24.4 µM. The GI50 [3] was 13.5 µM, the TGI [3] was 26.9 µM and the GI50 [4] was 4.52 µM. For the same compound, the TGI [4] was 17.3 µM, the GI50 [5] was 11.5 µM and the TGI [5] was 23.7 µM. It also gave a GI50 [6] of 15.1 µM, a TGI [6] of 29.5 µM and a GI50 [8] of 5.15 µM. The TGI [8] was 29.8 µM, the GI50 [10] was 15.5 µM and the TGI [10] was 50.8 µM.
In the case of `CCc1cccc(C(C)C)c1NC(=O)C(=O)C1C(=O)Nc2ccccc2S1=O` (stereo not drawn), the TGI [9] is reported as greater than 100 µM, the TGI [1] is reported as greater than 100 µM and the TGI [2] is reported as greater than 100 µM. It also gave a TGI [3] greater than 100 µM, a TGI [4] greater than 100 µM and a TGI [5] greater than 100 µM. For the same compound, the TGI [6] was greater than 100 µM, the TGI [8] was greater than 100 µM and the TGI [10] was greater than 100 µM.
`COc1ccc(Nc2nc3cc(N)cc(N)c3nc2-c2ccccc2)cc1` gave a GI50 [1] of 13 µM, a TGI [1] of 30.6 µM and a GI50 [2] of 12 µM. The TGI [2] was greater than 100 µM, the GI50 [4] was 17.3 µM and the TGI [4] was 37.3 µM. For the same compound, the GI50 [5] was 11.6 µM, the TGI [5] was 25.2 µM and the GI50 [6] was 39.3 µM. For the same compound, the TGI [6] was greater than 100 µM, the GI50 [7] was 34.4 µM and the TGI [7] was greater than 100 µM. It also gave a GI50 [8] of 14.9 µM, a TGI [8] of 28.1 µM and a GI50 [10] of 15 µM. It also gave a TGI [10] of 28.3 µM.
For `COc1cc(/C=C2\CC3C4CC=C5C[C@@H](OC(C)=O)CC[C@]5(C)C4CC[C@]3(C)C2=O)ccc1OCCN1CCCCC1` (stereo partly drawn), the GI50 [9] was 1.16 µM, the TGI [9] was 3.23 µM and the GI50 [1] was 3.39 µM. It also gave a TGI [1] of 31.4 µM, a GI50 [2] of 1.25 µM and a TGI [2] of 3.35 µM. For the same compound, the GI50 [3] was 1.71 µM, the TGI [3] was 5.07 µM and the GI50 [4] was 2.05 µM. It also gave a TGI [4] of 5.29 µM, a GI50 [5] of 3.31 µM and a TGI [5] of 7.89 µM. The GI50 [6] was 5.18 µM, the TGI [6] was 17.4 µM and the GI50 [8] was 2.07 µM. It also gave a TGI [8] of 5.53 µM, a GI50 [10] of 1.66 µM and a TGI [10] of 3.35 µM.
